Substitutions are numbered along the chain they refer to.
How the values were obtained:
Drosophila MTP (dMTP) = target: T1, Drosophila MTP (dMTP) (Drosophila melanogaster, UniProt Q9VIH3); assay: NBD-PE PL transfer assay in Cos-7 lysate, […] lomitapide (partial inhibition); type: cell-based
T1 construct: expressed in Cos-7 cells, lysate
T1 sequence (Q9VIH3 28-886): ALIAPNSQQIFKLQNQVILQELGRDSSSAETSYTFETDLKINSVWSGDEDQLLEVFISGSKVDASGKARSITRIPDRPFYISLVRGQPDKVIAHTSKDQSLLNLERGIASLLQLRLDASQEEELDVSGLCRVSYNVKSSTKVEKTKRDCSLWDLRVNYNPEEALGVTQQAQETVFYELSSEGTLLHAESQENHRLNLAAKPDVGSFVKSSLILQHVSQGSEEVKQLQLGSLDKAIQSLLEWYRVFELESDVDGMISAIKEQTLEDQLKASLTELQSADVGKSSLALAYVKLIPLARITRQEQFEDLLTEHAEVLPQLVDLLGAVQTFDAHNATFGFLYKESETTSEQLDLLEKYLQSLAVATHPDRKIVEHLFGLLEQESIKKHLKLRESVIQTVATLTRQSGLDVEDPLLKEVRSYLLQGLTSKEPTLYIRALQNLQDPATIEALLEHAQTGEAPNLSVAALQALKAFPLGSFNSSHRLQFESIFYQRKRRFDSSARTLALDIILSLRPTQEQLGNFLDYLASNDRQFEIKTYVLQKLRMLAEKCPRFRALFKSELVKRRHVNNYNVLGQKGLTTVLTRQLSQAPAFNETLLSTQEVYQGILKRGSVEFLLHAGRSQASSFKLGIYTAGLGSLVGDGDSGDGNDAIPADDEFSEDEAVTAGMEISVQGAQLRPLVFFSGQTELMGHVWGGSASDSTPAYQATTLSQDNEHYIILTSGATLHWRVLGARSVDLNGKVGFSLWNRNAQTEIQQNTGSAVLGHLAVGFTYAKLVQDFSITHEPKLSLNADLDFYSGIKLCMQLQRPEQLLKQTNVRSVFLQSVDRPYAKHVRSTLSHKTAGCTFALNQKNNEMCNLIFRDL

[1] = target: T2, mouse microsomal triglyceride transfer protein (mMTP) (Mus musculus, UniProt O08601); assay: NBD-lipid TAG and PL transfer assay in liver homogenate with Mttp knockout control, […] lomitapide; type: cell-based
T2 construct: gene Mttp; endogenous, liver homogenate
T2 sequence (O08601 22-894): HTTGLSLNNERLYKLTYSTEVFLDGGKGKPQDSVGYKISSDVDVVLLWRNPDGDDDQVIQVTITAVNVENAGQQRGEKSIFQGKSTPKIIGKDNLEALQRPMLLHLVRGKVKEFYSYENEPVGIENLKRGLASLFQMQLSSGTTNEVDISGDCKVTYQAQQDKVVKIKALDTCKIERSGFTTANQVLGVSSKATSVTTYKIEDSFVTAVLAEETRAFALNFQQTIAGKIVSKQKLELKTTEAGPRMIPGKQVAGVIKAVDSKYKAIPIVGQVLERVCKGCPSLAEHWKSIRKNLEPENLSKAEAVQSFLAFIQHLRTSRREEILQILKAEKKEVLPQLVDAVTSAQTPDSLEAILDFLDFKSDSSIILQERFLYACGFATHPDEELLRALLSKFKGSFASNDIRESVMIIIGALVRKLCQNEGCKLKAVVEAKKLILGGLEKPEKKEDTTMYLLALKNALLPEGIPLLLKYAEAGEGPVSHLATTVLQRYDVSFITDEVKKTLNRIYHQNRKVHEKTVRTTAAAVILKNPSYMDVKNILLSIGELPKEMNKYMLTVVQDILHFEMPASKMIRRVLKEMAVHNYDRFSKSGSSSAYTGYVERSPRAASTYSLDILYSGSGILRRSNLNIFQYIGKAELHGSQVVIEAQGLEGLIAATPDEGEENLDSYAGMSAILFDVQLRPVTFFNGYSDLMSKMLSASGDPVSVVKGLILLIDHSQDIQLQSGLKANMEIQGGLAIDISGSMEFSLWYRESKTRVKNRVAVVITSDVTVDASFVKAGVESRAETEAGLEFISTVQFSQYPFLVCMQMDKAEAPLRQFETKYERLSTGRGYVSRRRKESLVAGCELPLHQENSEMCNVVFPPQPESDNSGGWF
T2 sequence (P09103 20-509 partner): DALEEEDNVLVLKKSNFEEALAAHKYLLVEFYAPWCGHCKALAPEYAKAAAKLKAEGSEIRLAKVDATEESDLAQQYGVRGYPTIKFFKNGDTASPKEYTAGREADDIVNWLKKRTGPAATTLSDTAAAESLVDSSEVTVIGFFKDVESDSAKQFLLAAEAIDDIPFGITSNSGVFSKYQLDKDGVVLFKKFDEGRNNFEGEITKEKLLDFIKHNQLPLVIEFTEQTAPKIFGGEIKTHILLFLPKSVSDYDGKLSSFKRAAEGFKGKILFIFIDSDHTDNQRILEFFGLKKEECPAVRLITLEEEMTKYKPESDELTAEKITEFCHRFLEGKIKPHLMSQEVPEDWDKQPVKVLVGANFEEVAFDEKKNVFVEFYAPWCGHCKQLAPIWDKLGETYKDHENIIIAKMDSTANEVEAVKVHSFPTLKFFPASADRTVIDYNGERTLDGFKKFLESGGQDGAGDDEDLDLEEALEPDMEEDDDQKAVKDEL

[2] = target: T3, human microsomal triglyceride transfer protein (hMTP) N649S mutant (Homo sapiens, UniProt P55157, N649S); assay: NBD-lipid TAG and PL transfer assay in Cos-7 lysate, […] lomitapide; type: cell-based
T3 construct: gene MTTP; expressed in Cos-7 cells, lysate
T3 sequence (P55157 19-894 N649S): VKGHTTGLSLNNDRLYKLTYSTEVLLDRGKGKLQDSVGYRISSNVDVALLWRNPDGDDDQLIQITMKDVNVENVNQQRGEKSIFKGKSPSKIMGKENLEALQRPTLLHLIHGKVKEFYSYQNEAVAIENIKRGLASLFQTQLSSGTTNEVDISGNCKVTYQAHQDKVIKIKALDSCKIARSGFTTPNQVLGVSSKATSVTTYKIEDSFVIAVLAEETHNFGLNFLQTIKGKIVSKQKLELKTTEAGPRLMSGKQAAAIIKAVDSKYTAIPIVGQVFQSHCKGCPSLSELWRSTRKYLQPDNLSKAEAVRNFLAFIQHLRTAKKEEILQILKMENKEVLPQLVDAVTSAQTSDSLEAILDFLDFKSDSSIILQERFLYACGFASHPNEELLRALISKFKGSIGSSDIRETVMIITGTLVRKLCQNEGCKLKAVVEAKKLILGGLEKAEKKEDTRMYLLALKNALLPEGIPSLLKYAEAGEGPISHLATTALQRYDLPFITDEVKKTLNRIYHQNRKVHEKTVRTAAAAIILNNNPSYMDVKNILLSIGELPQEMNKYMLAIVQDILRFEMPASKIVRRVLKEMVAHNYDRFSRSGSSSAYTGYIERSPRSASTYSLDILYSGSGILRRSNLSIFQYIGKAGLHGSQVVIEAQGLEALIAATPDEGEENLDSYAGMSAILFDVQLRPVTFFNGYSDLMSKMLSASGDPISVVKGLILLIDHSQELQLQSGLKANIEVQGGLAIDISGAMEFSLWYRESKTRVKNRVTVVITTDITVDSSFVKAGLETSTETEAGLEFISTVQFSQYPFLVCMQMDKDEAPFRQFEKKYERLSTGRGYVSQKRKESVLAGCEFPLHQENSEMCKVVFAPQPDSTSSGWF

[3] = target: T4, human microsomal triglyceride transfer protein (hMTP) (Homo sapiens, UniProt P55157); assay: fluorescent NBD-lipid vesicle transfer assay (PL and TAG) with purified MTP; type: biochemical
T4 construct: gene MTTP; hMTP-FLAG, purified from Cos-7 cells; with protein disulphide isomerase (PDI, β subunit)
T4 sequence (P55157 19-894): T3 sequence (P55157 19-894 N649S) with S631N

IC50 [3]: 10 nM
SMILES: O=C(NC1CCN(CCCCC2(C(=O)NCC(F)(F)F)c3ccccc3-c3ccccc32)CC1)c1ccccc1-c1ccc(C(F)(F)F)cc1 [lomitapide]
NBD-PE PL transfer assay in Cos-7 lysate, 1 μM lomitapide (partial inhibition) (Drosophila MTP (dMTP)): This activity was partially inhibited by lomitapide.
NBD-lipid TAG and PL transfer assay in liver homogenate with Mttp knockout contr [1]: substantial TAG transfer activity in Mttp^fl/fl liver tissue, and this activity was inhibited by lomitapide
NBD-lipid TAG and PL transfer assay in Cos-7 lysate, 1 μM lomitapide [2]: resulted in significantly lower TAG transfer activity, which was completely inhibited by lomitapide

Source: paper PMC8569553, “An improved assay to measure the phospholipid transfer activity of microsomal triglyceride transport protein” (Journal of Lipid Research, 2021)
